Laboratory results published in paper PMC6234764, “First Insights Into Within Host Translocation of the Bacillus cereus Toxin Cereulide Using a Porcine Model” (Frontiers in Microbiology, 2018).
Like-named read-outs stand apart in the source and are kept apart here.

Legend:
Format in all cases: in vivo, pig
[1] = Cereulide in blood, SIDA-MS
Method: (§1) A total of four experiments, each including four treated animals and one control pig, was performed to investigate the action of cereulide on piglets after oral intake of cereulide. Pigs were either challenged orally with a single dose (acute trials) or with daily over a period of 7 days (chronic trial) (see Table 1). One hour before cereulide toxin administration blood samples were taken by puncturing the anterior Vena cava and piglets were weighed for calculation of the cereulide concentration (t = 0 h). In the intoxication experiment with 150 μg kg^-1 blood samples were taken 68 h before the experiment to reduce the distress for the animals at the start day of the experiments. Blood-chemical, immunological, and histological analyses of selected organs as well as quantification of cereulide in organs, tissues, urine and feces were carried out as detailed below.
(§2) On body weight calculated amounts of cereulide, dissolved in ethanol, were mixed with milk (UHT milk; 3.5% fat), and fed to four piglets. Control piglets were fed with milk supplemented with similar ethanol concentrations as the experimental piglets. The experiment started after the uptake of the whole milk cereulide mixture. The milk was checked for bacterial contamination prior to the experiment.
(§3) After oral administration of cereulide, piglets were monitored for unusual behavior and examined physically with special respect on rectal body temperature as well as pulse and respiration rate, every 2–3 h. Blood samples were taken from the Vena cava cranialis. Urine and feces were collected during the whole experiment and stored at -80°C. After the experiment pigs were anaesthetized by intramuscular injection of a bolus of ketamine (10 mg kg^-1) and azaperone (1.3 mg kg^-1). When sedation was deep enough cerebrospinal fluid (liquor) was taken by lumbar puncture. Finally, pigs were euthanized by intracardial injection of T61®. Animals were then necropsied and parts of the following organs, tissues or body fluids were taken for SIDA-MS analysis: liver, lung, heart, kidney, brain, spleen, small and large intestine, lymph nodes, gastric as well as intestinal contents, skeletal muscle, and abdominal and subcutaneous fat. Samples of liver, lung, heart, kidney, brain, spleen, small, and large intestine were collected for histological analysis.
Collected blood samples, urine, feces, tissue and organs were freeze dried and stored at -80°C until analysis. Before extraction, liquid nitrogen was added to frozen samples and they were crushed to a powder using a mortar. […] Finally, samples were membrane filtrated (0.2 μm; PTFE membrane; Phenomenex, Aschaffenburg, Germany) and analyzed by means of LC-MS/MS as described previously ([Bauer et al., 2010]). […]

[2] = Cereulide in organs and tissues, SIDA-MS; settings: for tissue level at time at 48 h / tissue level at time at 168 h: pig; for tissue level at time at 168 h: 10 ug/kg
Method: as §1, §2, §3
Collected blood samples, urine, feces, tissue and organs were freeze dried and stored at -80°C until analysis. Before extraction, liquid nitrogen was added to frozen samples and they were crushed to a powder using a mortar. Ten microgram ^13C6-cereulide (for organs and feces) or 5 μg ^13C6-cereulide (for urine and blood) was added and samples were incubated on a rocking table for 2 h. Samples were solved in ethanol (volume depending on weight 10–40 mL), incubated 14 h, and the supernatants were collected by centrifugation (RT, 8500 g, 10 min). For pre-purification the ethanolic extract was 1:5 diluted with water and applied onto the top of a methanol activated C18-SPE cartridge (6 mL; 1 g; Strata C18-E; Phenomenex, Aschaffenburg, Germany). The cartridge was washed with 6 mL water followed by methanol/water (4 mL; 70/30, v/v) and target compounds were eluted with ethanol (2.5 mL). Finally, samples were membrane filtrated (0.2 μm; PTFE membrane; Phenomenex, Aschaffenburg, Germany) and analyzed by means of LC-MS/MS as described previously ([Bauer et al., 2010]). In brief, LC-MS/MS analysis was performed using an Agilent 1200 HPLC-system connected to the API 4000QTrap LC-MS/MS (Applied Biosystems, Darmstadt, Germany) running in the positive electrospray ionization (ESI^+, +5500 V) mode. Zero grade air served as nebulizer gas (45 psi) and turbo gas (425°C) for solvent drying (55 psi), nitrogen was used as curtain (20 psi) and collision gas (8.7 × 10^-7 psi), respectively. Both quadrapoles were set at unit resolution. […]

piglets = experiment: Histological examination of organs; settings: pigs orally challenged with cereulide
Method: as §3

[3] = daily oral dose 10 μg kg^-1 for 7 days, SIDA-MS
[4] = daily oral dose 10 μg kg^-1 over 7 days
[5] = single oral dose 30 μg kg^-1, necropsy after 48 h, SIDA-MS
[6] = single oral dose 150 μg kg^-1, necropsy after 48 h, SIDA-MS

## CC(C)C[C@H]1OC(=O)[C@H](C(C)C)NC(=O)[C@H](C(C)C)OC(=O)[C@@H](C)NC(=O)[C@@H](CC(C)C)OC(=O)[C@H](C(C)C)NC(=O)[C@H](C(C)C)OC(=O)[C@@H](C)NC(=O)[C@@H](CC(C)C)OC(=O)[C@H](C(C)C)NC(=O)[C@H](C(C)C)OC(=O)[C@@H](C)NC1=O [cereulide]
[1]; single oral dose 150 μg kg^-1, after 24–48 h
  Detectability of cereulide in blood: detectable in three out of four pigs
[1]; single oral dose 150 μg kg^-1, one animal
  Highest concentration of cereulide in the blood: 45 ng cereulide mL^-1
[1]; single oral dose 150 μg kg^-1, pig with highest blood levels
  Time of first detection in blood: 8 h
[1]; single oral dose 150 μg kg^-1, pig with lowest abdominal fat level, 24 h
  Maximum cereulide in blood after 24 h: 45 ng cereulide mL^-1
[2]; acute high dose over chronic trial
  Average concentration in content of large intestine, acute 150 μg kg^-1 versus chronic 10 μg kg^-1 daily: about 15 fold
[2]; chronic 10 μg kg^-1 daily exceeds acute 150 μg kg^-1
  Amounts of cereulide in muscle, chronic trial versus acute high dose: threefold
[2]; [3]
  Cereulide concentration in content of large intestine, range: 2.04 to 6.78 ng/g
  Cereulide concentration in kidney, range: 0.14 to 0.37 ng/g
  Cereulide concentration in large intestine, range: 1.16 to 5.05 ng/g
  Cereulide concentration in liver, range: 0.06 to 0.24 ng/g
  Cereulide concentration in lymph nodes, range: 0.01 to 0.14 ng/g
  Cereulide concentration in muscle, range: 0 to 2.23 ng/g
  Cereulide concentration in spleen, range: 0.10 to 0.21 ng/g
  Cereulide concentration in subcutaneous fat, range: 0 to 0.08 ng/g
[2]; [4]
  Cereulide in large intestine and large intestinal contents, maximum: up to 6.8 ng g^-1
  Detectability of cereulide in the small intestine: not detectable
[2]; detection of cereulide in brain samples after oral challenge
  Passage of the blood-brain-barrier (BBB): can cross the BBB
[2]; abdominal fat, 150 ug/kg, single oral dose 150 μg kg^-1, necropsy after 48 h, SIDA-MS, read-out: Cereulide concentration in abdominal fat, average
  tissue level at time at 48 h: 7.88 ± 4.17 ng/g
[2]; brain, 150 ug/kg, single oral dose 150 μg kg^-1, necropsy after 48 h, SIDA-MS, read-out: Cereulide concentration in brain, average
  tissue level at time at 48 h: 0.73 ± 0.49 ng/g
[2]; content of large intestine, daily oral dose 10 μg kg^-1 for 7 days, SIDA-MS, read-out: Cereulide concentration in content of large intestine, average
  tissue level at time at 168 h: 4.41 ± 2.37 ng/g
[2]; content of large intestine, 30 ug/kg, single oral dose 30 μg kg^-1, necropsy after 48 h, SIDA-MS, read-out: Cereulide concentration in content of large intestine, average
  tissue level at time at 48 h: 0.07 ± 0.03 ng/g
[2]; content of large intestine, 150 ug/kg, single oral dose 150 μg kg^-1, necropsy after 48 h, SIDA-MS, read-out: Cereulide concentration in content of large intestine, average
  tissue level at time at 48 h: 67.9 ± 50.8 ng/g
[2]; content of small intestine, 150 ug/kg, single oral dose 150 μg kg^-1, necropsy after 48 h, SIDA-MS, read-out: Cereulide concentration in content of small intestine, average
  tissue level at time at 48 h: 0.68 ± 0.53 ng/g
[2]; kidney, daily oral dose 10 μg kg^-1 for 7 days, SIDA-MS, read-out: Cereulide concentration in kidney, average
  tissue level at time at 168 h: 0.25 ± 0.12 ng/g
[2]; kidney, 150 ug/kg, single oral dose 150 μg kg^-1, necropsy after 48 h, SIDA-MS, read-out: Cereulide concentration in kidney, average
  tissue level at time at 48 h: 0.21 ± 0.21 ng/g
[2]; large intestine, daily oral dose 10 μg kg^-1 for 7 days, SIDA-MS, read-out: Cereulide concentration in large intestine, average
  tissue level at time at 168 h: 3.11 ± 1.95 ng/g
[2]; large intestine, 30 ug/kg, single oral dose 30 μg kg^-1, necropsy after 48 h, SIDA-MS, read-out: Cereulide concentration in large intestine, average
  tissue level at time at 48 h: 0.07 ± 0.06 ng/g
[2]; large intestine, 150 ug/kg, single oral dose 150 μg kg^-1, necropsy after 48 h, SIDA-MS, read-out: Cereulide concentration in large intestine, average
  tissue level at time at 48 h: 30.5 ± 14.3 ng/g
[2]; liver, daily oral dose 10 μg kg^-1 for 7 days, SIDA-MS, read-out: Cereulide concentration in liver, average
  tissue level at time at 168 h: 0.14 ± 0.08 ng/g
[2]; liver, 150 ug/kg, single oral dose 150 μg kg^-1, necropsy after 48 h, SIDA-MS, read-out: Cereulide concentration in liver, average
  tissue level at time at 48 h: 0.37 ± 0.07 ng/g
[2]; lymph nodes, daily oral dose 10 μg kg^-1 for 7 days, SIDA-MS, read-out: Cereulide concentration in lymph nodes, average
  tissue level at time at 168 h: 0.07 ± 0.07 ng/g
[2]; lymph nodes, 150 ug/kg, single oral dose 150 μg kg^-1, necropsy after 48 h, SIDA-MS, read-out: Cereulide concentration in lymph nodes, average
  tissue level at time at 48 h: 2.82 ± 1.71 ng/g
[2]; muscle, daily oral dose 10 μg kg^-1 for 7 days, SIDA-MS, read-out: Cereulide concentration in muscle, average
  tissue level at time at 168 h: 1.12 ± 1.12 ng/g
[2]; muscle, 150 ug/kg, single oral dose 150 μg kg^-1, necropsy after 48 h, SIDA-MS, read-out: Cereulide concentration in muscle, average
  tissue level at time at 48 h: 0.39 ± 0.32 ng/g
[2]; small intestine, 150 ug/kg, single oral dose 150 μg kg^-1, necropsy after 48 h, SIDA-MS, read-out: Cereulide concentration in small intestine, average
  tissue level at time at 48 h: 1.34 ± 0.88 ng/g
[2]; spleen, daily oral dose 10 μg kg^-1 for 7 days, SIDA-MS, read-out: Cereulide concentration in spleen, average
  tissue level at time at 168 h: 0.15 ± 0.06 ng/g
[2]; spleen, 150 ug/kg, single oral dose 150 μg kg^-1, necropsy after 48 h, SIDA-MS, read-out: Cereulide concentration in spleen, average
  tissue level at time at 48 h: 2.26 ± 1.75 ng/g
[2]; stomach, 150 ug/kg, single oral dose 150 μg kg^-1, necropsy after 48 h, SIDA-MS, read-out: Cereulide concentration in stomach, average
  tissue level at time at 48 h: 2 ± 3.2 ng/g
[2]; subcutaneous fat, daily oral dose 10 μg kg^-1 for 7 days, SIDA-MS, read-out: Cereulide concentration in subcutaneous fat, average
  tissue level at time at 168 h: 0.04 ± 0.04 ng/g
[2]; subcutaneous fat, 150 ug/kg, single oral dose 150 μg kg^-1, necropsy after 48 h, SIDA-MS, read-out: Cereulide concentration in subcutaneous fat, average
  tissue level at time at 48 h: 0.74 ± 0.51 ng/g
[2]; [5]
  Cereulide concentration in content of large intestine, range: 0 to 0.09 ng/g
  Cereulide concentration in large intestine, range: 0 to 0.13 ng/g
[2]; single oral dose 150 μg kg^-1
  Cereulide in content of the large intestine, maximum: up to 140 ng g^-1
  Cereulide in content of the small intestine, maximum: ≤ 1 ng/g
  Cereulide in the brain, animal with highest blood concentration: 1.4 ng cereulide g^-1
[2]; single oral dose 150 μg kg^-1, animal with highest blood concentration
  Cereulide in fat tissue, one animal: 2 ng cereulide g^-1 fat tissue
[2]; [6]
  Cereulide concentration in abdominal fat, range: 2.17 to 12.02 ng/g
  Cereulide concentration in brain, range: 0.15 to 1.41 ng/g
  Cereulide concentration in content of large intestine, range: 5.84 to 140.99 ng/g
  Cereulide concentration in content of small intestine, range: 0 to 1.06 ng/g
  Cereulide concentration in kidney, range: 0 to 0.43 ng/g
  Cereulide concentration in large intestine, range: 7.14 to 45.75 ng/g
  Cereulide concentration in liver, range: 0.25 to 0.41 ng/g
  Cereulide concentration in lymph nodes, range: 0 to 4.50 ng/g
  Cereulide concentration in muscle, range: 0 to 0.76 ng/g
  Cereulide concentration in small intestine, range: 0.34 to 2.49 ng/g
  Cereulide concentration in spleen, range: 1.15 to 5.29 ng/g
  Cereulide concentration in stomach, range: 0.11 to 7.54 ng/g
  Cereulide concentration in subcutaneous fat, range: 0.35 to 1.37 ng/g
[2]; single oral dose 150 μg kg^-1, two out of four animals
  Cereulide in fat tissues, maximum: up to 12 ng cereulide g^-1
piglets
  Histological examinations of liver, lung, heart, kidneys, brain, spleen and gastrointestinal tract: did not reveal any notable or specific pathological changes
